For assay [1], the target named is dopamine transporter (DAT) (Rattus norvegicus (Rat), UniProt P23977). The assay is described as follows: Dopamine Transporter Binding Assay ([3H]WIN 35428, rat striatal membranes).
In assay [2] the target is Sigma 2 (Homo sapiens (Human), UniProt Q5BJF2). Description: Sigma 2 binding affinity (Table 5).
Assay [3] has as its target norepinephrine transporter (NET) (Rattus norvegicus, UniProt Q63380). The note with it: rat brain membranes. How it is done: Binding affinities of all compounds were evaluated at the DAT, SERT, and NET in rat brain membranes using previously described methods:
Norepinephrine Transporter Binding Assay. Brains from male Sprague-Dawley rats weighing 200-225 g (Taconic Labs, Germantown, N.Y.) were removed, frontal cortex dissected and rapidly frozen. Membranes were prepared by homogenizing tissues in 20 volumes (w/v) of 50 mM Tris containing 120 mM NaCl and 5 mM KCl, (pH 7.4 at 25° C.), using a Brinkman Polytron and centrifuged at 50,000×g for 10 min at 4° C. The resulting pellet was resuspended in buffer, recentrifuged and resuspended in buffer to a concentration of 80 mg/mL. Ligand binding experiments were conducted in assay tubes containing 0.5 mL buffer for 60 min at 0-4° C. […] Nonspecific binding was determined using 1 mM desipramine. Incubations were terminated by rapid filtration through Whatman GF/B filters, presoaked in 0.05% polyethylenimine, using a Brandel R48 filtering manifold (Brandel Instruments Gaithersburg, Md.). The filters were washed twice with 3 mL cold buffer and transferred to scintillation vials. Beckman Ready Value (3.0 mL) was added and the vials were counted using a Beckman 6000 liquid scintillation counter (Beckman Coulter Instruments, Fullerton, Calif.). […] All compounds were tested as racemic mixtures.

Assay [4] deals with Sigma 1 (Homo sapiens (Human), UniProt Q99720). Description: Sigma 1 binding affinity (Table 5).
Sigma 1, sequence (Q99720 whole entry): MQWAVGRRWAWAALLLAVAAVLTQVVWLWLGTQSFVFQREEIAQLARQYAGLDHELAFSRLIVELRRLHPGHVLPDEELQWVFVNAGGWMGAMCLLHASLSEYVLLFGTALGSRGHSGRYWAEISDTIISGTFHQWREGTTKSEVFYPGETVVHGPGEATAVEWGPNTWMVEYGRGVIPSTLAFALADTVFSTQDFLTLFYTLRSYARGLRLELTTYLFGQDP
The target in assay [5] is serotonin transporter (SERT) (Rattus norvegicus (Rat), UniProt P31652). The note with it: for Ki: rat brain membranes.
serotonin transporter (SERT), sequence (P31652 whole entry): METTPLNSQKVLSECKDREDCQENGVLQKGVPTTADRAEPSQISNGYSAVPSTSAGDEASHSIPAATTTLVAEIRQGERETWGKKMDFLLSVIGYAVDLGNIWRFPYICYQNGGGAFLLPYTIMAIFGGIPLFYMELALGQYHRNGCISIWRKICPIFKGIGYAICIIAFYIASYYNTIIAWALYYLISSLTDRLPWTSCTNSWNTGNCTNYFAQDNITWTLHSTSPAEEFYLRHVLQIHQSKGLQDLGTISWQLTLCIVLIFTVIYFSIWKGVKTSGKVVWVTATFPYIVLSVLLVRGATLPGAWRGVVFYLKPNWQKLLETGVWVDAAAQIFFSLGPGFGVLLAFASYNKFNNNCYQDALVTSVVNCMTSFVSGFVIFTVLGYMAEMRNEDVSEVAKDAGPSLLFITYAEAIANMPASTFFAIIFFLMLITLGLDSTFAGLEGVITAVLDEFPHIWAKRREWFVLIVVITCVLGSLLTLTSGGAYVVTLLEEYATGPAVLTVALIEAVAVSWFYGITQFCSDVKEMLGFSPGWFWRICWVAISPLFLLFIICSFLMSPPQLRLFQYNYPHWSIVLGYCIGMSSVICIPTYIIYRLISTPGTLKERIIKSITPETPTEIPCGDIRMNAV
Method: Brains from male Sprague-Dawley rats weighing 200-225 g (Taconic Labs, Germantown, N.Y.) were removed, midbrain dissected and rapidly frozen. […] Nonspecific binding was determined using 10 mM fluoxetine. […] The filters were washed twice with 3 mL cold buffer and transferred to scintillation vials. Beckman Ready Value (3.0 mL) was added and the vials were counted the next day using a Beckman 6000 liquid scintillation counter (Beckman Coulter Instruments, Fullerton, Calif.). […] Data were analyzed with GraphPad Prism software (San Diego, Calif.).
The mark [6] stands for this setting: rat brain membranes, Table 5 piperazinyl derivatives, read-out: DAT Ki ± SEM.
The mark [7] stands for this setting: read-out: NET Ki ± SEM, Table 5 piperazinyl derivatives.
Where [8] appears, read: read-out: SERT Ki ± SEM, Table 5 piperazinyl derivatives.
The mark [9] stands for this setting: Table 5 piperazinyl derivatives, read-out: Sigma 2 Ki ± SEM.
Setting [10] is: Table 5 piperazinyl derivatives, read-out: Sigma 1 Ki ± SEM.
[11] abbreviates: read-out: NET Ki, Table 5, bound in M.
Setting [12] is: rat brain membranes, Table 1 thioacetamides and sulfinylacetamides, read-out: Ki (nM) ± S.E.M. DAT.
[13] abbreviates: read-out: Ki (nM) ± S.E.M. NET, Table 1 thioacetamides and sulfinylacetamides.
[14] abbreviates: read-out: Ki (nM) ± S.E.M. SERT, Table 1 thioacetamides and sulfinylacetamides.
Setting [15] is: read-out: Ki (nM) ± S.E.M. NET, Table 2 thioethanamines and sulfinylethanamines.
[16] abbreviates: read-out: Ki (nM) ± S.E.M. SERT, Table 2 thioethanamines and sulfinylethanamines.
[17] abbreviates: rat brain membranes, Table 2 thioethanamines and sulfinylethanamines, read-out: Ki (nM) ± S.E.M. DAT.

Read-outs that look alike come from different tables or passages of the source. Some results are limits rather than exact numbers.

In general, Ki refers to the dissociation constant of the complex between target and ligand, obtained from inhibition or displacement.

Sigma 2, sequence (Q5BJF2 whole entry): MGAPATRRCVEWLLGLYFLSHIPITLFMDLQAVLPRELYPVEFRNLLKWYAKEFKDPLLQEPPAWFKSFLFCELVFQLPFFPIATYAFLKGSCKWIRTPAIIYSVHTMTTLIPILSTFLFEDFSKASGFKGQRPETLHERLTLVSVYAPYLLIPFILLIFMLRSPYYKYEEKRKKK
dopamine transporter (DAT), sequence (P23977 whole entry): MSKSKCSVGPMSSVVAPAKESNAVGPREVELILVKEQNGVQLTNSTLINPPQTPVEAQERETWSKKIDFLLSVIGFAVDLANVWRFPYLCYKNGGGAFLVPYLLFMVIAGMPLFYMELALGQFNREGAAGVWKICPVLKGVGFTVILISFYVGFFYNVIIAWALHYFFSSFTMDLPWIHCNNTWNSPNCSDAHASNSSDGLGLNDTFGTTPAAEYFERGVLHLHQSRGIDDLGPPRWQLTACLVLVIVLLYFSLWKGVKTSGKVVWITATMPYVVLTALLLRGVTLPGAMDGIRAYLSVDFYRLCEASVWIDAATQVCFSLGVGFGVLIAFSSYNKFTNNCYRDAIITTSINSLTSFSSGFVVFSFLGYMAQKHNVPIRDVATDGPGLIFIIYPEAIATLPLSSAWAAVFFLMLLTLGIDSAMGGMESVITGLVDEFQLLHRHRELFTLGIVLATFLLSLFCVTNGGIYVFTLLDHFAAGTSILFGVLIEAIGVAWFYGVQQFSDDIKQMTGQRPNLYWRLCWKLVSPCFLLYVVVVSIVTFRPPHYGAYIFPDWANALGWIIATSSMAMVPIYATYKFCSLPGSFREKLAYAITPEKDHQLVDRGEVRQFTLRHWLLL
norepinephrine transporter (NET), sequence (Q63380 1-617): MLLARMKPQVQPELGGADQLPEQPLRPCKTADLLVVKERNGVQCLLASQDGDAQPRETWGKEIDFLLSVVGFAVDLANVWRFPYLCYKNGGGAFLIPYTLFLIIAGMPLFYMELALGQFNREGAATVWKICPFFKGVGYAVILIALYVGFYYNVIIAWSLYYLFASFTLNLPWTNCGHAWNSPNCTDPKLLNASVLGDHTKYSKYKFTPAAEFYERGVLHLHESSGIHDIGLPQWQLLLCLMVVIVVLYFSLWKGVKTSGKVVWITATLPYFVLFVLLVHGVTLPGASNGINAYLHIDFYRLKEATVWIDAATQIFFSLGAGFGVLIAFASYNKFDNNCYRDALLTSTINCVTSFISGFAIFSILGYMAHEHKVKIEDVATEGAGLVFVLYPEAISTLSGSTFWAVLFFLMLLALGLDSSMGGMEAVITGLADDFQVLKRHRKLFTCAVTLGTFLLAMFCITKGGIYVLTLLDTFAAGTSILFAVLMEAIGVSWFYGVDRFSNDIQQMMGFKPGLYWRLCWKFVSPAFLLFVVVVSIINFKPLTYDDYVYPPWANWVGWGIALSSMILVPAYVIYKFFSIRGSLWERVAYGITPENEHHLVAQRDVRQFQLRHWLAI

Take `CC(O)CN1CCN(CCSC(c2ccccc2)c2ccccc2)CC1` (racemic) [Compound 9a, 1-(4-(2-(Benzhydrylthio)ethyl)piperazin-1-yl)propan-2-ol]: the Ki in assay [1] (setting [6]) is 49.6 ± 4.31 nM; in assay [2], 92.6 ± 13.5 nM; in assay [3] (setting [7]), 44500 ± 2400 nM; in assay [4], 0.94 ± 0.07 nM; in assay [5] (setting [8]) it was 26700 ± 2630 nM.

As for `CC(O)CN1CCN(CCSC(c2ccc(F)cc2)c2ccc(F)cc2)CC1` (racemic) [Compound 9d, 1-(4-(2-((Bis(4-fluorophenyl)methyl)thio)ethyl)piperazin-1-yl)propan-2-ol], the Ki in assay [2] (setting [9]) stood at 84.7 ± 11.9 nM; in assay [4] (setting [10]), 4.03 ± 0.22 nM; in assay [5] (setting [8]), 1770 ± 234 nM.

Regarding `OC(Cc1ccccc1)CN1CCN(CCSC(c2ccccc2)c2ccccc2)CC1` (racemic) [Compound 9g, 1-(4-(2-(Benzhydrylthio)ethyl)piperazin-1-yl)-3-phenylpropan-2-ol], the Ki in assay [1] (setting [6]) was found to be 2.54 ± 0.23 nM; in assay [2] (setting [9]) it was 31.8 ± 3.63 nM; in assay [3] (setting [7]), 1430 ± 118 nM; in assay [4] (setting [10]), 30 ± 3.81 nM.

In the case of `OC(Cc1ccccc1)CN1CCN(CCSC(c2ccc(F)cc2)c2ccc(F)cc2)CC1` (racemic) [Compound 9j, 1-(4-(2-((Bis(4-fluorophenyl)methyl)thio)ethyl)piperazin-1-yl)-3-phenylpropan-2-ol], the Ki in assay [2] was found to be 38.6 ± 0.94 nM; in assay [3] (setting [7]), 1950 ± 227 nM; in assay [4], 95.4 ± 13.4 nM; in assay [5] (setting [8]) it was 213 nM.

For the molecule `CC(O)CN1CCN(CC[S+]([O-])C(c2ccccc2)c2ccccc2)CC1` (racemic) [Compound 10a, 1-(4-(2-(Benzhydrylsulfinyl)ethyl)piperazin-1-yl)propan-2-ol], the Ki in assay [1] (read-out: DAT Ki ± SEM) was 636 ± 14.7 nM; in assay [2] (setting [9]), 3930 ± 208 nM; in assay [3] (setting [11]), over 100000 nM; in assay [4] (setting [10]), 861 ± 109 nM; in assay [5] (read-out: SERT Ki, Table 5, bound in M) it was over 100000 nM.

In the case of `CC(O)CN1CCN(CC[S+]([O-])C(c2ccc(F)cc2)c2ccc(F)cc2)CC1` (racemic) [Compound 10d, 1-(4-(2-((Bis(4-fluorophenyl)methyl)sulfinyl)ethyl)piperazin-1-yl)propan-2-ol], the Ki in assay [2] (setting [9]) was 1800 ± 264 nM; in assay [3] (setting [11]) it was over 100000 nM; in assay [4] (setting [10]), 1010 ± 134 nM; in assay [5] (setting [8]), 50300 ± 5760 nM.

For `[O-][S+](CCN1CCN(CC(O)Cc2ccccc2)CC1)C(c1ccc(F)cc1)c1ccc(F)cc1` (racemic) [Compound 10j, 1-(4-(2-((Bis(4-fluorophenyl)methyl)sulfinyl)ethyl)piperazin-1-yl)-3-phenylpropan-2-ol], the Ki in assay [1] (setting [6]) stood at 2.53 ± 0.25 nM; in assay [2] (setting [9]), 176 ± 26.3 nM; in assay [4] it was 336 ± 42.2 nM; in assay [5] (setting [8]), 4610 ± 562 nM.

`CNC(=O)CSC(c1ccc(Br)cc1)c1ccc(Br)cc1` [Compound 2i, 2-((Bis(4-bromophenyl)methyl)thio)-N-methylacetamide]: the “improvement in DAT affinity, halogen-substituted v. unsubstituted analogue” value in assay [1] is given as 6 fold. In addition, the Ki in assay [1] (setting [12]) came out at 3030 nM; in assay [3] (setting [13]) it was 11200 nM; in assay [5] (setting [14]), 5750 nM. Besides, the “increase in SERT affinity, halogen-substituted v. unsubstituted analogue” value in assay [5] (2i v. 2g (Table 1), 4c v. 4a (Table 2)) is given as over 50 fold.

Turning to `C=CCNC(=O)CSC(c1ccccc1)c1ccccc1` [Compound 2j, N-Allyl-2-(benzhydrylthio)acetamide], the Ki was 9190 nM in assay [1] (setting [12]), over 230000 nM in assay [3] (setting [13]) and over 300000 nM in assay [5] (setting [14]).

Regarding `CCCNC(=O)CSC(c1ccccc1)c1ccccc1` [Compound 2k, 2-(Benzhydrylthio)-N-propylacetamide], the Ki in assay [1] (setting [12]) was 20700 nM; in assay [3] (setting [13]), 55900 nM; in assay [5] (setting [14]), over 550000 nM.

With `CCCNC(=O)CSC(c1ccc(F)cc1)c1ccc(F)cc1` [Compound 2l, 2-((Bis(4-fluorophenyl)methyl)thio)-N-propylacetamide], the values for the Ki in assay [1] (setting [12]), in assay [3] (setting [13]) and in assay [5] (setting [14]) were 12000 nM, 61700 nM and 45100 nM, respectively.

Turning to `CCCCNC(=O)CSC(c1ccccc1)c1ccccc1` [Compound 2r, 2-(Benzhydrylthio)-N-butylacetamide], the Ki in assay [1] (setting [12]) is 24000 nM; in assay [3] (setting [13]), over 100000 nM; in assay [5] (setting [14]), over 100000 nM.

For `O=C(CSC(c1ccc(Br)cc1)c1ccc(Br)cc1)NCCCc1ccccc1` [Compound 2x, 2-((Bis(4-bromophenyl)methyl)thio)-N-(3-phenylpropyl)acetamide], the Ki was 244 ± 36.4 nM in assay [1] (setting [12]), 36300 nM in assay [3] (setting [13]) and 60800 nM in assay [5] (setting [14]).

In the case of `CNC(=O)C[S+]([O-])C(c1ccccc1)c1ccccc1` (stereo not shown) [Compound 3f, 2-(Benzhydrylsulfinyl)-N-methylacetamide], the Ki in assay [1] (setting [12]) is 13400 nM; in assay [3] (setting [13]), over 100000 nM; in assay [5] (setting [14]) it was over 100000 nM.

For `O=C(C[S+]([O-])C(c1ccc(Br)cc1)c1ccc(Br)cc1)NCCCc1ccccc1` (stereo not shown) [Compound 3g, 2-(Bis(4-bromophenyl)methylsulfinyl)-N-(3-phenylpropyl)acetamide], the Ki in assay [1] (setting [12]) was 1290 nM; in assay [3] (setting [13]), over 100000 nM; in assay [5] (setting [14]) it was 906 ± 113 nM.

Take `NCCSC(c1ccccc1)c1ccccc1` [Compound 4a, 2-(benzhydrylthio)ethan-1-amine]: the “improved affinity at the DAT compared to (±)-modafinil” value in assay [1] was “about 20 fold”. The results for the inhibitory constant (Ki) in assay [1] (read-out: Ki (nM) ± S.E.M. DAT), in assay [3] (setting [15]) and in assay [5] (setting [16]) were 143 nM, 982 ± 43.3 nM and 226 ± 30.6 nM, respectively.

For the molecule `CCCCNCCSC(c1ccccc1)c1ccccc1` [Compound 4e, N-(2-(benzhydrylthio)ethyl)butan-1-amine], the results for the Ki in assay [1] (setting [17]), in assay [3] (setting [15]) and in assay [5] (setting [16]) were 315 ± 39.9 nM, 11500 nM and 5820 nM, respectively.

For `c1ccc(CCCNCCSC(c2ccccc2)c2ccccc2)cc1` [Compound 4f, N-(2-(benzhydrylthio)ethyl)-3-phenylpropan-1-amine], the Ki in assay [1] (setting [17]) was found to be 297 ± 28.2 nM; in assay [3] (setting [15]) it was 3910 nM; in assay [5] (setting [16]) it was 853 ± 127 nM.

In the case of `CCCCNCC[S+]([O-])C(c1ccccc1)c1ccccc1` (stereo not shown) [Compound 5b, N-(2-(benzhydrylsulfinyl)ethyl)butan-1-amine], the Ki in assay [1] (setting [17]) was 1580 nM; in assay [3] (setting [15]), over 140000 nM; in assay [5] (setting [16]) it was 64600 nM.

Consider `[O-][S+](CCNCCCc1ccccc1)C(c1ccc(F)cc1)c1ccc(F)cc1` (stereo not shown) [Compound 5c, N-(2-((bis(4-fluorophenyl)methyl)sulfinyl)ethyl)-3-phenylpropan-1-amine], for which the Ki is 200 ± 38.7 nM in assay [1] (setting [17]), 3280 nM in assay [3] (setting [15]) and 1310 nM in assay [5] (setting [16]).

Turning to `[O-][S+](CCNCCCc1ccccc1)C(c1ccc(Cl)cc1)c1ccc(Cl)cc1` (stereo not shown) [Compound 5d, N-(2-((bis(4-chlorophenyl)methyl)sulfinyl)ethyl)-3-phenylpropan-1-amine], the Ki was 660 ± 76.9 nM in assay [1] (setting [17]), 5800 nM in assay [3] (setting [15]) and 542 ± 42.6 nM in assay [5] (setting [16]).

For the molecule `[O-][S+](CCNCCCc1ccccc1)C(c1ccc(Br)cc1)c1ccc(Br)cc1` (stereo not shown) [Compound 5e, N-(2-((bis(4-bromophenyl)methyl)sulfinyl)ethyl)-3-phenylpropan-1-amine], the results for the Ki in assay [1] (setting [17]), in assay [3] (setting [15]) and in assay [5] (setting [16]) were 1290 nM, 7580 nM and 564 ± 65.3 nM, respectively.

Turning to `[O-][S+](CCN1CCN(CCCc2ccccc2)CC1)C(c1ccc(F)cc1)c1ccc(F)cc1` (stereo not shown) [Compound 8b, 1-(2-((Bis(4-fluorophenyl)methyl)sulfinyl)ethyl)-4-(3-phenylpropyl)piperazine], the Ki in assay [1] (read-out: DAT Ki ± SEM) came out at 2.92 ± 0.38 nM; in assay [2] (setting [9]), 25.9 ± 1.11 nM; in assay [3] (setting [7]), 4280 ± 343 nM; in assay [4] (setting [10]), 42.4 ± 5.1 nM.

On to `O=C(CSC(c1ccccc1)c1ccccc1)N1CCN(CCCc2ccccc2)CC1` [Compound 11a, 2-(Benzhydrylthio)-1-(4-(3-phenylpropyl)piperazin-1-yl)ethan-1-one], for which the Ki in assay [1] (setting [6]) is 47.2 ± 5.56 nM; in assay [2], 773 nM; in assay [4], 1120 ± 20.3 nM.

As for `O=C(C[S+]([O-])C(c1ccccc1)c1ccccc1)N1CCN(CCCc2ccccc2)CC1` (stereo not shown) [Compound 12a, 2-(Benzhydrylsulfinyl)-1-(4-(3-phenylpropyl)piperazin-1-yl)ethan-1-one], the Ki was determined as 33 ± 2.83 nM in assay [1] (setting [6]), 469 ± 66.4 nM in assay [2] (setting [9]), 1430 ± 21.1 nM in assay [4] (setting [10]) and 15200 ± 1100 nM in assay [5] (setting [8]).
